Assay results: PubChem BioAssay AID1963421 (Molecular Pharmacology Branch, DTP, NCI, 2024)
“And” between values parts separate entries of the source, which are not always exact repeats. Equal values may be shown once. Blank lines part the entries; values can stand above or below the compound they belong to.

Tested on: 519858-162-T-J1-PDC complex spheroid growth, % test/control
Assay: Anticancer human tumor 519858-162-T-J1-PDC patient-derived colon adenocarcinoma cell line growth inhibition [Asc]
Conditions: for viability, T/C: stronger effect = lower value
Procedure, shortened: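 Tumor cells were grown as complex spheroids with human endothelial cells (HUVEC) and human mesenchymal stem cells as stroma. Agents were tested alone and in combination, in half-log steps down from the clinical Cmax, or from 10 microM where Cmax was unknown.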

[1] = curve of first compound, second compound 0.00316 µM
[2] = curve of first compound, second compound 0.01 µM
[3] = curve of first compound, second compound 0.0316 µM
[4] = curve of first compound, second compound 0.1 µM
[5] = curve of first compound, second compound 0.316 µM
[6] = curve of first compound, second compound 1 µM
[7] = second compound 0.00316 µM, first compound 0.0316 µM
[8] = second compound 0.00316 µM, first compound 0.1 µM
[9] = second compound 0.00316 µM, first compound 0.316 µM
[10] = second compound 0.00316 µM, first compound 1 µM
[11] = second compound 0.01 µM, first compound 0.0316 µM
[12] = second compound 0.01 µM, first compound 0.1 µM
[13] = second compound 0.01 µM, first compound 0.316 µM
[14] = second compound 0.01 µM, first compound 1 µM
[15] = second compound 0.0316 µM, first compound 0.0316 µM
[16] = second compound 0.0316 µM, first compound 0.1 µM
[17] = second compound 0.0316 µM, first compound 0.316 µM
[18] = second compound 0.0316 µM, first compound 1 µM
[19] = second compound 0.1 µM, first compound 0.0316 µM
[20] = second compound 0.1 µM, first compound 0.1 µM
[21] = second compound 0.1 µM, first compound 0.316 µM
[22] = second compound 0.1 µM, first compound 1 µM
[23] = second compound 0.316 µM, first compound 0.0316 µM
[24] = second compound 0.316 µM, first compound 0.1 µM
[25] = second compound 0.316 µM, first compound 0.316 µM
[26] = second compound 0.316 µM, first compound 1 µM
[27] = second compound 1 µM, first compound 0.0316 µM
[28] = second compound 1 µM, first compound 0.1 µM
[29] = second compound 1 µM, first compound 0.316 µM
[30] = second compound 1 µM, first compound 1 µM
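Also: seven day drug exposure begun three days after spheroid seeding.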
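For viability, T/C in this document: 100% = DMSO vehicle wells and lower values mean less viable spheroid.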

IC50 [1]: > 10000 nM
IC50 [2]: > 10000 nM
IC50 [3]: > 10000 nM
IC50 [4]: > 10000 nM
IC50 [5]: > 10000 nM
IC50 [6]: > 10000 nM
Compound: O=C(c1cc(Cc2n[nH]c(=O)c3ccccc23)ccc1F)N1CCN(C(=O)C2CC2)CC1 + CNC(C)C(=O)NC1CN(S(=O)(=O)c2cccc(S(=O)(=O)N3CCC4CCC(C(=O)NC(c5ccccc5)c5ccccc5)N4C(=O)C(NC(=O)C(C)NC)C3)c2)CCC2CCC(C(=O)NC(c3ccccc3)c3ccccc3)N2C1=O
viability, T/C [7]: 61.5%
viability, T/C [8]: 57.1%
viability, T/C [9]: 55%
viability, T/C [10]: 66.5%
viability, T/C (second compound 0.00316 µM, first compound 3.16 µM): 72.8%
viability, T/C (second compound 0.00316 µM, first compound 10 µM): 65.1%
viability, T/C [11]: 127%
viability, T/C [12]: 98.8%
viability, T/C [13]: 103%
viability, T/C [14]: 89.4%
viability, T/C (second compound 0.01 µM, first compound 3.16 µM): 114%
viability, T/C (second compound 0.01 µM, first compound 10 µM): 87%
viability, T/C [15]: 96.9%
viability, T/C [16]: 73.4%
viability, T/C [17]: 91.3%
viability, T/C [18]: 91.1%
viability, T/C (second compound 0.0316 µM, first compound 3.16 µM): 84.5%
viability, T/C (second compound 0.0316 µM, first compound 10 µM): 88.3%
viability, T/C [19]: 97.9%
viability, T/C [20]: 83.2%
viability, T/C [21]: 89.7%
viability, T/C [22]: 84.9%
viability, T/C (second compound 0.1 µM, first compound 3.16 µM): 94.4%
viability, T/C (second compound 0.1 µM, first compound 10 µM): 76.4%
viability, T/C [23]: 68.4%
viability, T/C [24]: 86.6%
viability, T/C [25]: 117%
viability, T/C [26]: 97.7%
viability, T/C (second compound 0.316 µM, first compound 3.16 µM): 100%
viability, T/C (second compound 0.316 µM, first compound 10 µM): 95%
viability, T/C [27]: 80.7%
viability, T/C [28]: 84.9%
viability, T/C [29]: 106%
viability, T/C [30]: 99.3%
viability, T/C (second compound 1 µM, first compound 3.16 µM): 78.1%
viability, T/C (second compound 1 µM, first compound 10 µM): 95.3%

IC50 (curve of compound): > 10000 nM
Compound: O=C(c1cc(Cc2n[nH]c(=O)c3ccccc23)ccc1F)N1CCN(C(=O)C2CC2)CC1
viability, T/C (compound 0.0316 µM): 80.7% and 96.9% and 79.1%
viability, T/C (compound 0.1 µM): 93.5% and 79.1% and 92.7%
viability, T/C (compound 0.316 µM): 80.5% and 81.3% and 77.4%
viability, T/C (compound 1 µM): 96.3% and 112% and 117%
viability, T/C (compound 3.16 µM): 97.3% and 89.7% and 106%
viability, T/C (compound 10 µM): 94.3% and 70.3% and 86.1%

IC50 [1]: 316 nM
IC50 [2]: 224 nM
IC50 [3]: 284 nM
IC50 [4]: 241 nM
IC50 [5]: 254 nM
IC50 [6]: 268 nM
Compound: O=C(c1ccc(F)c(F)c1Nc1ccc(I)cc1F)N1CC(O)([C@@H]2CCCCN2)C1 + CNC(C)C(=O)NC1CN(S(=O)(=O)c2cccc(S(=O)(=O)N3CCC4CCC(C(=O)NC(c5ccccc5)c5ccccc5)N4C(=O)C(NC(=O)C(C)NC)C3)c2)CCC2CCC(C(=O)NC(c3ccccc3)c3ccccc3)N2C1=O
viability, T/C (second compound 0.00316 µM, first compound 0.00316 µM): 119%
viability, T/C (second compound 0.00316 µM, first compound 0.01 µM): 133%
viability, T/C [7]: 95.9%
viability, T/C [8]: 111%
viability, T/C [9]: 49.7%
viability, T/C [10]: 13.8%
viability, T/C (second compound 0.01 µM, first compound 0.00316 µM): 93.9%
viability, T/C (second compound 0.01 µM, first compound 0.01 µM): 112%
viability, T/C [11]: 74.7%
viability, T/C [12]: 86.2%
viability, T/C [13]: 34.6%
viability, T/C [14]: 18.8%
viability, T/C (second compound 0.0316 µM, first compound 0.00316 µM): 121%
viability, T/C (second compound 0.0316 µM, first compound 0.01 µM): 107%
viability, T/C [15]: 79.7%
viability, T/C [16]: 101%
viability, T/C [17]: 44.2%
viability, T/C [18]: 14.3%
viability, T/C (second compound 0.1 µM, first compound 0.00316 µM): 99.4%
viability, T/C (second compound 0.1 µM, first compound 0.01 µM): 86.4%
viability, T/C [19]: 107%
viability, T/C [20]: 84.5%
viability, T/C [21]: 39.2%
viability, T/C [22]: 13.5%
viability, T/C (second compound 0.316 µM, first compound 0.00316 µM): 80.6%
viability, T/C (second compound 0.316 µM, first compound 0.01 µM): 122%
viability, T/C [23]: 86.8%
viability, T/C [24]: 79.2%
viability, T/C [25]: 43.5%
viability, T/C [26]: 16%
viability, T/C (second compound 1 µM, first compound 0.00316 µM): 77.5%
viability, T/C (second compound 1 µM, first compound 0.01 µM): 89.2%
viability, T/C [27]: 117%
viability, T/C [28]: 79.7%
viability, T/C [29]: 45.4%
viability, T/C [30]: 18.6%

IC50 (curve of compound): > 1000 nM and 793 nM
Compound: CCN1CCN(Cc2ccc(Nc3ncc(F)c(-c4cc(F)c5nc(C)n(C(C)C)c5c4)n3)nc2)CC1
viability, T/C (compound 0.00316 µM): 112% and 91.6% and 83.9%
viability, T/C (compound 0.01 µM): 104% and 98.3% and 105%
viability, T/C (compound 0.0316 µM): 91% and 73.6% and 115%
viability, T/C (compound 0.1 µM): 87.1% and 75.9% and 100%
viability, T/C (compound 0.316 µM): 73.9% and 61.4% and 72.9%
viability, T/C (compound 1 µM): 62% and 46.7% and 81.3%
